# Measured values published in paper PMC6629785, “Synthesis and Pharmacological Evaluation of a Novel Peptide Based on Anemonia sulcata BDS-I Toxin as a New KV3.4 Inhibitor Exerting a Neuroprotective Effect Against Amyloid-β Peptide” (Frontiers in Chemistry, 2019).
# Ends that are not written are not given here.
# Test system: KV3.4 currents
# Test: Whole-cell patch clamp of KV3.4 currents in NGF-differentiated PC-12 cells, control or exposed to Aβ1−42
# Format: cell-based, Rat
# Settings: peak of +40 mV pulse, 6 to 10 cells, 3 sessions; for effect on KV3.4 activity in NGF-differentiated PC-12 cells: 100 nM, control condition (no Aβ1−42); for effect on KV3.4 upregulation elicited by Aβ1−42 exposure: peptide 100 nM, 30 min pre-treatment, Aβ1−42 oligomers 5 μM for 24 h
# Experimental: Rat pheochromocytoma cells (PC-12 cells) were grown as previously described (Pannaccione et al., [2005], [2007]). For all the experiments, cells were seeded at low density on glass cover-slips coated with poly-L-lysine (50 μg/ml). Differentiation of PC-12 cells was achieved by treatment with neuronal growth factor (NGF) 2.5 S (50 ng/ml) for 7–9 days (Greene and Tischler, [1976]). For electrophysiological experiments, cells were seeded on glass cover-slips and used after 7–9 days of NGF.
# Currents from CHO cells were recorded at room temperature 1-2 days after transfection. The extracellular solution contained the following (in mM): 138 NaCl, 5.4 KCl, 2 CaCl2, 1 MgCl2, 10 glucose and 10 HEPES, adjusted pH 7.4 with NaOH. The pipette solution contained (in mM) the following: 140 KCl, 2 MgCl2, 10 EGTA, 10 HEPES, 5 Mg-ATP, adjusted pH 7.4 with KOH (Miceli et al., [2015]). KV3.4 currents were measured by applying voltage steps from −100 mV to +60 mV from a holding potential of −80 mV (Abbott et al., [2001]). Moreover, the total outward K^+ currents were recorded in NGF-differentiated PC-12 cells using the extracellular solution contained the following (in mM): 150 NaCl, 5.4 KCl, 3 CaCl2, 1 MgCl2, 10 HEPES, adjusted pH 7.4 with NaOH. The pipette solution contained the following (in mM): 140 KCl, 2 MgCl2, 10 HEPES, 10 glucose, 10 EGTA, and 1 Mg-ATP adjusted at pH 7.4 with KOH (Diochot et al., [1998]). All experiments were performed in the presence of 50 nM tetrodotoxin (TTX) and 10 μ M nimodipine in the extracellular solution. To discriminate K^+ current components appropriate electrophysiological protocols were used (Pannaccione et al., [2007]). Steady-state activation and inactivation properties were measured by using appropriate protocols (Pannaccione et al., [2005]). […] The capacitance of the membrane was calculated according to the following equation: Cm = τc·Io/ΔEm (1-I∞/Io), where Cm is membrane capacitance, τc is the time constant of the membrane capacitance, Io is the maximum capacitance current value, ΔEm is the amplitude of the voltage step, and I∞ is the amplitude of the steady-state current. K^+ currents were recorded by patch-clamp technique in CHO and NGF-differentiated PC-12 cells using a commercially available amplifier (Axopatch 200B, Molecular Devices) and Digidata 1322A interface (Molecular Devices, USA). […] Data were acquired and analyzed using the pClamp software (version 9, Molecular Devices). […]
# The peptide used in our study was synthesized by INBIOS (Pozzuoli, Naples, Italy) using the Aβ1−42 sequence of human APP [UniProtKB-P05067 (A4_HUMAN)]. The purity of the peptide was assessed by high-performance liquid chromatography (>95% pure) and the amino acid composition was verified by mass spectrometry. […]
Substance,effect on KV3.4 activity in NGF-differentiated PC-12 cells,effect on KV3.4 upregulation elicited by Aβ1−42 exposure
AAPAFASG [BDS-I[1-8]],blocked KV3.4 activity,prevented
H-GSAFAPAA-OH [BDS-I[1-8scr]],did not exert any effect,did not counteract
